Test results reported in patent EP4790048A1, “S1PR4 REGULATOR COMPOUND FOR AUTOIMMUNE DISEASE TREATMENT AND APPLICATION THEREOF” (Shengyuan Zetong (Shanghai) Pharmaceutical Co., Ltd, priority 2023, dated 2025).
Entries after “also recorded” stand apart in the source; their conditions may differ. Read-outs that look alike come from different tables or passages of the source. Values belong to the compound of their own block, whether it stands above or below them.

What was measured:
[1] = target: T1, hS1P4 (Homo sapiens, UniProt O95977); assay: Tango β-arrestin recruitment luciferase assay, Tango-hS1P4-CHO; type: cell-based
T1 construct: expressed in transfected cells; host or cells: CHO
T1 sequence (O95977 1-384): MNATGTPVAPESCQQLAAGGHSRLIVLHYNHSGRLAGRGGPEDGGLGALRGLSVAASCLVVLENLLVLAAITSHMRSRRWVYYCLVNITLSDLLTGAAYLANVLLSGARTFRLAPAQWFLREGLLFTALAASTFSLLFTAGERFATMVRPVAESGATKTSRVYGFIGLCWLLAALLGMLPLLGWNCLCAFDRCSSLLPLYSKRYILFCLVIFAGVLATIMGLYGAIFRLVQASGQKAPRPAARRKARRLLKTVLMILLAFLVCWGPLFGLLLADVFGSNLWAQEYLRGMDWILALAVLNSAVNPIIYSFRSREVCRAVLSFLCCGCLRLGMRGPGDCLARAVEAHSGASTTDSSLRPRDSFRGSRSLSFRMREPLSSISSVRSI
How it was run: (§1)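 CHO Tango cells (receptor–V2 tail–TEV/tTA fusion, β-arrestin 2–TEV, UAS-luciferase reporter) plated overnight (20 h) at 37°C, then treated 20 h with compounds, top final 45 µM, 9 five-fold dilutions, triplicates. Luciferase luminescence read; BAF-312 positive control at 1 µM (S1PR1) or 25 µM (S1PR4).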

[2] = system: hS1P4; assay: as above; type: cell-based, human; settings: S1PR4 versus S1PR1, β-arrestin recruitment EC50
How it was run: as §1

[3] = system: MRL/lpr mice; assay: Systemic lupus erythematosus model, MRL/lpr mice; type: in vivo; settings: for renal pathology (HE and PAS staining): 8 weeks of treatment
Protocol: Based on this, the inventor conducted efficacy evaluation on this compound using MRL/lpr mice, a classic model of lupus erythematosus.
The efficacy of Compound 67 was evaluated using MRL/Lpr lupus model mice.
The specific groups were as follows: MPJ control group, model group, positive drug Cenerimod group at 0.5 mg/kg, and Compound 67 at two doses: 1 mg/kg and 3 mg/kg.

[4] = S1PR4, Tango-S1PR4-CHO-K1 cells, mean ± SD, read-out: EC50
[5] = β-arrestin recruitment, 20 h drug treatment, top 45 µM, 9 serial 5-fold dilutions, positive control 25 µM BAF-312, read-out: Tango-hS1P4-CHO EC50
[6] = Compound 67 1 mg/kg and 3 mg/kg, 8 weeks, vs SLE model group

- EC50 [1, 4]: 1.8 ± 0.43 nM
- EC50 [1, 5]: 1.8 nM
SMILES: CCc1cc(/C(C)=N/OCc2ccc(-c3cnc(F)cn3)c(C)c2)ccc1CN1CC[C@H](C(=O)O)C1 [Compound 67, (S, E)-1-(2-ethyl-4-(1-(((4-(5-fluoropyrazin-2-yl)-3-methylbenzyl)oxy)imino)ethyl)benzyl)pyrrolidine-3-carboxylic acid]
- selectivity over S1PR1 [2]: more than 100 fold
- renal pathology (HE and PAS staining) ([3]; vs SLE model group): inflammatory cell infiltration was significantly reduced
- serum anti-nuclear / anti-double-stranded DNA antibody level ([3]; 8 weeks, vs SLE model group): significantly reduces the anti-double-stranded DNA antibody level; also recorded: significantly reduce the level of anti-double-stranded DNA antibody
- serum creatinine level [3, 6]: significantly reduce the serum creatinine level
- urinary microalbumin level (MAU) [3, 6]: significantly reduced the urinary microalbumin level
- Th1- and Th17-positive cells in spleen, Th1/Th2 and Th17/Treg ratios ([3]; vs SLE model group): regulates the number and ratio of T lymphocytes; also recorded: significantly reduce the number of Th1- and Th17-positive cells

SMILES: CCc1cc(/C(C)=N/OCc2ccc(-c3ccccc3)c(C)c2)ccc1CN1CC[C@H](C(=O)O)C1 [Compound 30]
- EC50 [1, 4]: 9.09 ± 0.67 nM
- EC50 [1, 5]: 9.09 nM
- selectivity over S1PR1 [2]: approximately 10 fold
- renal pathology (HE and PAS staining) ([3]; vs SLE model group): improves renal pathological injury; also recorded: renal interstitial inflammatory cell infiltration was significantly reduced
- serum anti-nuclear / anti-double-stranded DNA antibody level ([3]; 8 weeks, vs SLE model group): dose-dependently reduces; also recorded: markedly decreased
- subcutaneous nodules ([3]; SLE mice, vs model): dose-dependently reduces; also recorded: significantly reduced subcutaneous nodules
- body weight gain and mortality ([3]; continuous administration for 8 weeks, vs SLE model group): reduces the mortality rate; also recorded: prevented body weight gain and reduced mortality in a dose-dependent manner
- Th1- and Th17-positive cells in spleen, Th1/Th2 and Th17/Treg ratios ([3]; vs SLE model group): regulates the number and ratio of T lymphocytes; also recorded: significantly reduce the number of Th1- and Th17-positive cells
